{"source": "patent US12240854B2", "about": "“TRAF 6 inhibitors” (Helmholtz Zentrum München - Deutsches Forschungszentrum für …, priority 2018, dated 2025)", "key": {"BJAB (GCB DLBCL)": {"system": "BJAB (GCB DLBCL)", "experiment": "Cell viability in DLBCL, BJAB", "format": "cell-based", "details": "30 μM, 9 days", "procedure": "(§1) To determine the effects of C25-140 on MYD88-dependent ABC-DLBCL, we chose the HBL1 (ABC-DLBCL-MYD88 L265P), U2932 (ABC DLBCL-MYD88 wt) and BJAB (GCB DLBCL) cell lines. 1×10^6 cells of each cell line was seeded in 5 ml and treated with 30 μM compound C25-140 (compound 3) or DMSO. The entire experiment was carried out for 9 days. Every day 500 μl were taken and viable cell number was acquired using the ViCEII cell counter (Beckmann Coulter). At days 4 and 8 of the experiment the volume was again adjusted to 5 ml and samples were supplemented with 30 μM compound C25-140 or DMSO. This process was necessary to ensure linear proliferation of DMSO treated cells. All curves of C25-140 treated samples were referred to the corresponding DMSO treated controls."}, "[1]": {"system": "TRAF6 auto-ubiquitination in MEF cells", "experiment": "Immunoprecipitation of TRAF6 for endogenous ubiquitination, MEF cells", "format": "cell-based, mouse", "procedure": "2.5×10^6 MEF cells were seeded, treated with compound for 6 hours and stimulated with IL-1β (3.5 ng/mL) for 10 minutes. Cells were lysed in Co-IP lysis buffer containing 1% SDS to eliminate all cellular interactions. After cell lysis and removal of input samples, the samples were diluted to 0.1% SDS and incubated with 5 μL TRAF6 antibody EP591Y (Abcam) and immunoprecipitated with Protein-G-Sepharose beads. After washing of the beads in Co-IP wash buffer, TRAF6 protein was eluted and levels of TRAF6 ubiquitination were detected by Western Blot analysis."}, "[2]": {"system": "TCR target genes IL-2 and TNFα in Jurkat T-cells", "experiment": "mRNA expression (qRT-PCR) in Jurkat T-cells", "format": "cell-based, human", "details": "PMA/Ionomycin", "procedure": "For MEF cells, 1.2×10^5 cells per sample were seeded, treated with compound for 6 hours and stimulated with either IL-1β or TNFα for 60 minutes. Jurkat T-cells and primary mouse CD4^+ T-cells were seeded at 2×10^5 cells per sample, also treated with compound for 6 hours and stimulated with PMA/lonomycin for 3 hours. RNA was isolated according to the manufacturer's protocol of the Qiagen RNeasy Kit (MEF cells) or the STRATEC INVITRAP® SPIN UNIVERSAL RNA MINI KIT (Jurkat T-cells). The isolation of mRNA from […] white adipose tissue from DIO mice was performed using TRIzol® Reagent according to manufacturer's instruction. To clear the isolated RNA from genomic DNA, samples (up to 5 μg RNA) were treated with RQ1 RNase-Free DNaseI (Promega) as described in the technical manual. For the reverse transcription of RNA into cDNA, the DNaseI digested RNA samples were processed using the SuperScript III First Strand cDNA Synthesis System (Invitrogen/ThermoFisher Scientific) following the manufacturer's protocol. […] For quantification of cDNA in the samples, the LightCylcer480 (Roche) and the KAPA SYBR FAST qPCR Kit were used. For relative quantification, the ΔΔCp method first described by Pfaffl (Pfaffl, M. W., A new mathematical model for relative quantification in real-time RT-PCR. Nucleic Acids Res, 2001. 29(9): p. e45) was applied."}, "[3]": {"system": "IMQ-induced psoriasis in Balb/C mice", "experiment": "Imiquimod (IMQ)-induced psoriasis mouse model", "format": "in vivo", "procedure": "To evaluate the anti-inflammatory activity of the compound C25-140 (compound 3), an Imiquimod (IMQ)-induced psoriasis mouse model was conducted by Washington Biotechnology, Inc. (Baltimore, USA). Per group, 8 male Balb/C mice were shaved in the back (1.5 cm×2 cm) and IMQ and C25-140 were applied topically to the shaved back and the right ear daily for 6 days. Thereby, C25-140 was dissolved in acetone and applied at a total dosage of 500 μg per day (2×250 μg). Mice were monitored and daily scores (erythema, scaling and thickness of back skin) were independently collected on a scale from 0 to 4: 0=none; 1=slight; 2=moderate; 3=marked and 4=very marked. Ear thickness was measured by electronic calipers as an indicator of edema. IL-17 cytokine secretion of the right ear tissue was measured by ELISA."}, "Jurkat T-cells": {"system": "Jurkat T-cells", "experiment": "CellTiter-Glo viability assay, Jurkat T-cells", "format": "cell-based, human", "details": "6 or 24 hours incubation", "procedure": "For cell viability experiments using the CellTiter-Glo® 2.0 system (Promega), MEF cells (1.2×10^3 cells/well), HepG2 cells (4×10^3 cells/well) and Jurkat T-cells (5×10^3 cells/well) were seeded in 384 well plates. After 18 hours, cells were treated with compounds using the Sciclone G3 automation system. After 6 or 24 hours incubation, the luciferase measurement was performed according to the manufacturer's manual."}, "[4]": {"system": "U2932 (ABC DLBCL-MYD88 wt)", "experiment": "Cell viability in DLBCL, U2932", "format": "cell-based", "details": "U2932, 30 μM, 9 days", "procedure": "as §1"}, "E6AP": {"target": "T1, E6AP (Homo sapiens, UniProt Q05086)", "T1 construct": "purchased Boston Biochem", "T1 sequence (Q05086 whole entry)": "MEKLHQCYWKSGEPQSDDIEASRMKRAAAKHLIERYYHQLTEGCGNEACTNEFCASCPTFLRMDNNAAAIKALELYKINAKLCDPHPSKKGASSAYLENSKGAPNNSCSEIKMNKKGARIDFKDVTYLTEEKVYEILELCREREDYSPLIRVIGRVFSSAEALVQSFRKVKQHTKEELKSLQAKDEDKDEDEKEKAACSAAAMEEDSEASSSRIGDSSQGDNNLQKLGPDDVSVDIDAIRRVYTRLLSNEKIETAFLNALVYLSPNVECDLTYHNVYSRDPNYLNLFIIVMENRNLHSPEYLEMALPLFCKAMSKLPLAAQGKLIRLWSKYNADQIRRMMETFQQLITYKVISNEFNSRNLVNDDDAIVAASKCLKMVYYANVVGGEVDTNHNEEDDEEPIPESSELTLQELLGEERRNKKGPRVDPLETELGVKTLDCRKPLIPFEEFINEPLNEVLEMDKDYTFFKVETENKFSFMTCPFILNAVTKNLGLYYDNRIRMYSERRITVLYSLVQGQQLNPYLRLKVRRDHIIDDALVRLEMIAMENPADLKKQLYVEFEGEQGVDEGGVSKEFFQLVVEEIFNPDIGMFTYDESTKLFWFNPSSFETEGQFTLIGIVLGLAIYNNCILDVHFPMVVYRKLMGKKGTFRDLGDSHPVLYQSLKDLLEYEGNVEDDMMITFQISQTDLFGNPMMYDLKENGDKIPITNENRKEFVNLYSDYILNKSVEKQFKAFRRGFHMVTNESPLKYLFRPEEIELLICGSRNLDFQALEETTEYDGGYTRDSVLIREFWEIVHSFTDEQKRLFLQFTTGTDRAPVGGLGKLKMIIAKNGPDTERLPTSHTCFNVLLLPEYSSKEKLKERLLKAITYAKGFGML", "experiment": "In vitro ubiquitination assay, E6AP ubiquitin ligase kit", "format": "biochemical", "procedure": "For analysis of cIAP1, MDM2, TRIM63, RNF4, ITCH and E6AP mediated poly-ubiquitination, the respective ubiquitin ligase kit from Boston Biochem (K-102, K-260, K-200B, K-220, K-240 and K-270) was used. Here, reaction buffer, E1, E2 and E3 enzyme (and p53 substrate in case of MDM2) were mixed and pre-incubated with compound or DMSO for 5 minutes at room temperature before adding Mg^2+-ATP and mono-ubiquitin for reaction start. Ubiquitination was visualized by Western Blot analyses."}, "[5]": {"system": "NF-κB activation in Jurkat T-cells", "experiment": "EMSA for NF-κB activation in Jurkat T-cells", "format": "cell-based, human", "details": "PMA/Ionomycin", "procedure": "For compound treatment, MEF cells were seeded in 6 well plates at 1.2×10^5 cells/well the day before treatment. Jurkat T-cells were seeded directly before treatment at 2×10^5 cells/sample. Six hours after compound or DMSO treatment cells were stimulated as indicated. Thereby, MEF cells were left untreated or stimulated with recombinant mouse IL-1β (1 ng/mL) or TNFα (10 ng/mL) for 20 minutes. Jurkat T-cells were stimulated with Phorbol-12-myristat-13-acetet (PMA) (400 ng/mL) and lonomycin (600 ng/mL) for 30 minutes. Eventually, cells were lysed in high-salt lysis buffer (20 mM HEPES pH 7.9; 350 mM NaCl; 1 mM MgCl2; 0.5 mM EDTA; 0.1 mM EGTA; 20% Glycerol; 1% NP-40; 10 mM NaF; 8 mM β-Glycerophosphate; 1 mM DTT; 300 μM Sodium-vanadate; complete protease inhibitor) and analyzed in EMSA assays using H2K (NF-κB) or Oct-1 (loading control) probes."}, "[6]": {"details": "topical, 2x250 μg per day, 6 days"}, "[7]": {"details": "topical, 2x250 μg per day, 6 days, listed as 25-140"}}, "note": "“Also recorded” adds a separate entry of the source."}
{"compound": "Cc1nn(-c2ccc3nnc(C)n3n2)c(C)c1CCC(=O)N1CCC(Cc2ccccc2)CC1", "note": "[Example C25-140, 1-(4-Benzylpiperidin-1-yl)-3-(3,5-dimethyl-1-(3-methyl-[1,2,4]-triazolo-[4,3-b]-pyridazin-6-yl)-1H-pyrazol-4-yl)-propan-1-one]", "values": [{"measurement": "viability of GCB DLBCL", "setting": "BJAB (GCB DLBCL)", "result": "did not show any difference in viability; also recorded: not affected"}, {"measurement": "IL-1β-induced auto-ubiquitination of TRAF6", "setting": "[1]", "result": "reduced TRAF6 auto-ubiquitination"}, {"measurement": "mRNA levels of TCR target genes IL-2 and TNFα", "setting": "[2]", "result": "reduced; also recorded: dose-dependently decreased"}, {"measurement": "psoriasis symptoms / disease outcome (in words)", "setting": "[3]; IMQ-induced psoriasis", "result": "ameliorates disease outcomes; also recorded: ameliorates symptoms"}, {"measurement": "IL-17 cytokine in right ear tissue", "setting": "[3]; day 6, ELISA", "result": "significantly reduced; also recorded: decreased"}, {"measurement": "cumulative score", "setting": "[3]; [6]", "result": "reduces"}, {"measurement": "ear thickness", "setting": "[3]; [6]", "result": "significantly reduced"}, {"measurement": "erythema score of the back", "setting": "[3]; [6]", "result": "improvement of the disease symptoms"}, {"measurement": "scaling score", "setting": "[3]; [6]", "result": "improvement of the disease symptoms"}, {"measurement": "thickness score of the back", "setting": "[3]; [6]", "result": "significantly reduce"}, {"measurement": "cumulative score", "setting": "[3]; [7]", "result": "significantly reduce"}, {"measurement": "ear thickness", "setting": "[3]; [7]", "result": "improvement of the disease symptoms"}, {"measurement": "metabolic activity and cell viability", "setting": "Jurkat T-cells", "result": "did not considerably impact cell viability; also recorded: does not considerably affect metabolic activity and cell viability up to 50 μM; also recorded: at the highest dose of 100 μM toxicity is noticeable"}, {"measurement": "viability of MYD88 wildtype ABC DLBCL", "setting": "[4]", "result": "only slightly affected; also recorded: not affected"}, {"measurement": "S5A ubiquitination by E6AP", "setting": "E6AP", "result": "not influenced; also recorded: not affected"}, {"measurement": "NF-κB activation", "setting": "[5]", "result": "reduced; also recorded: attenuated NF-κB activation"}]}
